“And” between values parts separate entries of the source, which are not always exact repeats. Equal values may be shown once. Values belong to the compound of their own block, whether it stands above or below them.
Tested on: NCI-H1417 complex spheroids, growth % test/control
Assay: Anticancer human tumor NCI-H1417 cell line growth inhibition [Asc];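 also: spheroids exposed to compounds for 7 days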;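 as to viability, T/C: 100% = DMSO vehicle control wells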
Details: for viability, T/C: stronger effect = lower value
Description: Multicellular complex tumor spheroid response to apoptosis pathway targeting inhibitors Alrizomadlin, Pelcitoclax, and Dasminapant in combination with a variety of drugs and investigational agents in selected tumor cell lines
The MDM2 inhibitor alrizomadlin, the Bcl-2/Bcl-xL inhibitor pelcitoclax, and the IAPs inhibitor dasminapant were evaluated both individually and in combination with standard of care and investigational anticancer small molecules within a complex spheroid model of solid tumors. . Complex spheroids include a stromal component modeled by human endothelial cells (HUVEC) and fibroblasts modeled by human mesenchymal stem cells (MSCs). The concentration ranges selected for each drug and investigational agent were based upon clinically achievable concentrations if the clinical Cmax of the agent was known.
Compounds. The drugs and investigational agents: alrizomadlin (APG-115; NSC831270), pelcitoclax (APG-1252; NSC835773), dasminapant (APG-1387;NSC834197), TAK-243 (NSC785004), copanlisib (NSC809693), olaparib (NSC753686), talazoparib (NSC767125), cobimetinib (NSC 768068), eltanexor (KPT-8602, NSC 794443), abemaciclib (NSC 768073), sotorasib (NSC818433), adagrasib (NSC 831453), MRTX-1133 (NSC 836407), Iadademestat (ORY1001, NSC 806812), and RMC-4630 (NSC839698), were obtained from the NCI Developmental Therapeutics Program Chemical Repository. The FDA-approved anticancer drug set is available from the Developmental Therapeutics Program at https://dtp.cancer.gov/organization/dscb/obtaining/available plates.htm. […] The stock solutions were prepared in dimethyl sulfoxide (DMSO, Sigma-Aldrich, St. Louis, MO, cat. D2650) at 800-fold the tested concentration and stored at -70 degrees C prior to their use. All drugs and investigational agents were tested over a range starting from a high concentration at or near the clinical Cmax and decreasing in half-log increments. If the clinical Cmax for an agent had not been determined, the highest concentration tested was 10 microM.
The patient-derived cancer (PDC) cell lines include five colon adenocarcinomas: 186277-243-T-J2-PDC, 616215-338-R-J1-PDC, 439559-082-T-J2-PDC, 463943-066-T-J2-PDC, and 519858-162-T-J1-PDC; three pancreatic carcinomas: 323965-272-R-J2-PDC, 521955-158-R6-J3-PDC, and 521955-158-R2-J5-PDC; two uterine sarcomas: 327498-152-R-J2-PDC and 993429-296-R-J1-PDC; two rhabdomyosarcomas: 755483-174-R-J1-PDC and 772245-204-R-J1-PDC; two soft tissue sarcomas: 126254-015-R-J1-PDC and 494315-158-R-J1-PDC; two malignant fibrous histiocytomas: 317291-083-R-J1-PDC and 596521-263-R-J1-PDC; two breast carcinomas: 171881-019-R-J1-PDC and 885512-296-R-J2-PDC; and one ovarian carcinoma: 6556581-035-R-J-PDC were obtained from the NCI PDMR, (https://pdmr.cancer.gov). The established cell lines HSSY-2 synovial sarcoma (RRID:CVCL 8719), SYO-1 synovial sarcoma (RRID:CVCL_7146), MPNST malignant peripheral neural sheath tumor were obtained from the Sloan Kettering Institute. The following established cell lines were purchased from the American Type Culture Collection (ATCC, Manassas, VA), Sor the received from the NCI repository:, PANC-1 pancreatic carcinoma (CRL-1469, RRID:CVCL_0480), OVCAR-5 ovarian carcinoma (RRID:CVCL_1628), OVCAR-8 ovarian carcinoma (RRID:CVCL_1629), , MCF-7 breast carcinoma (CRL-12584, RRID:CVCL_0031), MDA-MB-231 breast carcinoma (CRL-12532, RRID:CVCL_0062), NCI-H1876 small cell lung carcinoma (CRL-5902, RRID:CVCL_1503), NCI-H510A small cell lung carcinoma (HTB-184, RRID:CVCL_1565), NCI-H1417 (CRL-5869, RRID:CVCL_1469), and NCI-H196 small cell lung carcinoma (CRL-5823, RRID:CVCL_1509). Dr. Peter Houghton (Greehey Children's Cancer Research Institute, University of Texas Health Science Center, San Antonio, TX) provided Rh-18 rhabdomyosarcoma (RRID:CVCL_1659). Pooled donor human umbilical vein endothelial cells (HUVEC, Lonza, cat. CC-2519) and human mesenchymal stem cells (hMSC, Lonza, cat. PT-2501) were purchased from Lonza (Walkersville, MD).
Cell Culture. […]

IC50 (curve of compound): 0.0582 µM and > 0.1 µM and 0.0321 µM
Structure (SMILES): Cn1ncnc1[C@H]1c2n[nH]c(=O)c3cc(F)cc(c23)N[C@@H]1c1ccc(F)cc1
viability, T/C (compound 0.000316 µM): 101% and 113% and 97.4% | viability, T/C (compound 0.001 µM): 90.8% and 116% and 85% | viability, T/C (compound 0.00316 µM): 81.6% and 87.3% and 69.7% | viability, T/C (compound 0.01 µM): 70.8% and 75.9% and 67.2% | viability, T/C (compound 0.0316 µM): 56.4% and 77% and 57% | viability, T/C (compound 0.1 µM): 44% and 79.8% and 30.6%

IC50 (curve of first compound, second compound 0.03 µM): > 10 µM | IC50 (curve of first compound, second compound 0.0949 µM): > 10 µM | IC50 (curve of first compound, second compound 0.3 µM): > 10 µM | IC50 (curve of first compound, second compound 0.949 µM): > 10 µM | IC50 (curve of first compound, second compound 3 µM): > 10 µM
Structure (SMILES): C#Cc1c(F)ccc2cc(O)cc(-c3ncc4c(N5CC6CCC(C5)N6)nc(OCC56CCCN5CC(F)C6)nc4c3F)c12 (configuration not stated) + CCN1C(C(=O)NC23CCC(C(=O)O)(CC2)CC3)C(c2cccc(Cl)c2F)C2(C(=O)Nc3cc(Cl)ccc32)C12CCCCC2
viability, T/C (second compound 0.03 µM, first compound 0.0316 µM): 101% | viability, T/C (second compound 0.03 µM, first compound 0.1 µM): 106% | viability, T/C (second compound 0.03 µM, first compound 0.316 µM): 106% | viability, T/C (second compound 0.03 µM, first compound 1 µM): 102% | viability, T/C (second compound 0.03 µM, first compound 3.16 µM): 103% | viability, T/C (second compound 0.03 µM, first compound 10 µM): 111% | viability, T/C (second compound 0.0949 µM, first compound 0.0316 µM): 107% | viability, T/C (second compound 0.0949 µM, first compound 0.1 µM): 103% | viability, T/C (second compound 0.0949 µM, first compound 0.316 µM): 93.9% | viability, T/C (second compound 0.0949 µM, first compound 1 µM): 95.2% | viability, T/C (second compound 0.0949 µM, first compound 3.16 µM): 108% | viability, T/C (second compound 0.0949 µM, first compound 10 µM): 109% | viability, T/C (second compound 0.3 µM, first compound 0.0316 µM): 98.2% | viability, T/C (second compound 0.3 µM, first compound 0.1 µM): 94.7% | viability, T/C (second compound 0.3 µM, first compound 0.316 µM): 94.8% | viability, T/C (second compound 0.3 µM, first compound 1 µM): 105% | viability, T/C (second compound 0.3 µM, first compound 3.16 µM): 108% | viability, T/C (second compound 0.3 µM, first compound 10 µM): 108% | viability, T/C (second compound 0.949 µM, first compound 0.0316 µM): 88.2% | viability, T/C (second compound 0.949 µM, first compound 0.1 µM): 96.9% | viability, T/C (second compound 0.949 µM, first compound 0.316 µM): 97.3% | viability, T/C (second compound 0.949 µM, first compound 1 µM): 88.3% | viability, T/C (second compound 0.949 µM, first compound 3.16 µM): 84% | viability, T/C (second compound 0.949 µM, first compound 10 µM): 77.3% | viability, T/C (second compound 3 µM, first compound 0.0316 µM): 91% | viability, T/C (second compound 3 µM, first compound 0.1 µM): 88.1% | viability, T/C (second compound 3 µM, first compound 0.316 µM): 105% | viability, T/C (second compound 3 µM, first compound 1 µM): 88.7% | viability, T/C (second compound 3 µM, first compound 3.16 µM): 89.5% | viability, T/C (second compound 3 µM, first compound 10 µM): 95.7%

IC50 (curve of first compound, second compound 0.01 µM): 5.78 µM | IC50 (curve of first compound, second compound 0.0316 µM): 6.33 µM | IC50 (curve of first compound, second compound 0.1 µM): 4.79 µM | IC50 (curve of first compound, second compound 0.316 µM): 5.52 µM | IC50 (curve of first compound, second compound 1 µM): 5.39 µM
Structure (SMILES): O=C(c1cc(Cc2n[nH]c(=O)c3ccccc23)ccc1F)N1CCN(C(=O)C2CC2)CC1 + CNC(C)C(=O)NC1CN(S(=O)(=O)c2cccc(S(=O)(=O)N3CCC4CCC(C(=O)NC(c5ccccc5)c5ccccc5)N4C(=O)C(NC(=O)C(C)NC)C3)c2)CCC2CCC(C(=O)NC(c3ccccc3)c3ccccc3)N2C1=O
viability, T/C (second compound 0.01 µM, first compound 0.0316 µM): 101% | viability, T/C (second compound 0.01 µM, first compound 0.1 µM): 101% | viability, T/C (second compound 0.01 µM, first compound 0.316 µM): 94.7% | viability, T/C (second compound 0.01 µM, first compound 1 µM): 83.6% | viability, T/C (second compound 0.01 µM, first compound 3.16 µM): 65.6% | viability, T/C (second compound 0.01 µM, first compound 10 µM): 36.1% | viability, T/C (second compound 0.0316 µM, first compound 0.0316 µM): 102% | viability, T/C (second compound 0.0316 µM, first compound 0.1 µM): 87.8% | viability, T/C (second compound 0.0316 µM, first compound 0.316 µM): 88.5% | viability, T/C (second compound 0.0316 µM, first compound 1 µM): 100% | viability, T/C (second compound 0.0316 µM, first compound 3.16 µM): 71.5% | viability, T/C (second compound 0.0316 µM, first compound 10 µM): 35.8% | viability, T/C (second compound 0.1 µM, first compound 0.0316 µM): 90.3% | viability, T/C (second compound 0.1 µM, first compound 0.1 µM): 93.5% | viability, T/C (second compound 0.1 µM, first compound 0.316 µM): 81.8% | viability, T/C (second compound 0.1 µM, first compound 1 µM): 90% | viability, T/C (second compound 0.1 µM, first compound 3.16 µM): 60.7% | viability, T/C (second compound 0.1 µM, first compound 10 µM): 30.9% | viability, T/C (second compound 0.316 µM, first compound 0.0316 µM): 99.9% | viability, T/C (second compound 0.316 µM, first compound 0.1 µM): 92.3% | viability, T/C (second compound 0.316 µM, first compound 0.316 µM): 96.7% | viability, T/C (second compound 0.316 µM, first compound 1 µM): 85.6% | viability, T/C (second compound 0.316 µM, first compound 3.16 µM): 68.8% | viability, T/C (second compound 0.316 µM, first compound 10 µM): 30% | viability, T/C (second compound 1 µM, first compound 0.0316 µM): 97.7% | viability, T/C (second compound 1 µM, first compound 0.1 µM): 90% | viability, T/C (second compound 1 µM, first compound 0.316 µM): 91.2% | viability, T/C (second compound 1 µM, first compound 1 µM): 95% | viability, T/C (second compound 1 µM, first compound 3.16 µM): 65.5% | viability, T/C (second compound 1 µM, first compound 10 µM): 32%
